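Values below derive from 48-hour exposures of cells grown in 96-well plates, with endpoints linearly interpolated between the two concentrations bracketing the appropriate inhibition level. At the GI50, growth is halved.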 Active and inactive are the calls of the source. Rule as the data show it: active = GI50 up to about 1.1 µM and inactive = higher.
How the values were obtained:
Experiment in all cases: growth of human tumour cells (NCI), 48 h
786-0 = test system: 786-0
A498 = test system: A498
A549 = test system: A549
ACHN = test system: ACHN
CAKI-1 = test system: CAKI-1
CCRF-CEM = test system: CCRF-CEM
COLO 205 = test system: COLO 205
DLD-1 = test system: DLD-1
DMS-114 = test system: DMS-114
DMS-273 = test system: DMS-273
EKVX = test system: EKVX
HCT-116 = test system: HCT-116
HCT-15 = test system: HCT-15
HL-60 = test system: HL-60
HOP-62 = test system: HOP-62
HT-29 = test system: HT-29
IGROV-1 = test system: IGROV-1
K562 = test system: K562
KM-20L2 = test system: KM-20L2
KM12 = test system: KM12
LOX IMVI = test system: LOX IMVI
LXFL 529 = test system: LXFL 529
M14 = test system: M14
M19-MEL = test system: M19-MEL
MOLT-4 = test system: MOLT-4
Malme-3M = test system: Malme-3M
NCI-H226 = test system: NCI-H226
NCI-H23 = test system: NCI-H23
NCI-H460 = test system: NCI-H460
NCI-H522 = test system: NCI-H522
OVCAR-3 = test system: OVCAR-3
OVCAR-4 = test system: OVCAR-4
OVCAR-8 = test system: OVCAR-8
RPMI-8226 = test system: RPMI-8226
RXF 393 = test system: RXF 393
SF-268 = test system: SF-268
SF-295 = test system: SF-295
SK-MEL-28 = test system: SK-MEL-28
SK-MEL-2 = test system: SK-MEL-2
SK-MEL-5 = test system: SK-MEL-5
SK-OV-3 = test system: SK-OV-3
SN12C = test system: SN12C
SNB-19 = test system: SNB-19
SR = test system: SR
SW-620 = test system: SW-620
TK-10 = test system: TK-10
U-251 = test system: U-251
UACC-257 = test system: UACC-257
UACC-62 = test system: UACC-62
UO-31 = test system: UO-31
XF498 = test system: XF498
BT-549 = test system: BT-549
DU-145 = test system: DU-145
HCC 2998 = test system: HCC 2998
HOP-18 = test system: HOP-18
HOP-92 = test system: HOP-92
Hs-578T = test system: Hs-578T
MCF7 = test system: MCF7
MDA-MB-231 = test system: MDA-MB-231
MDA-MB-435 = test system: MDA-MB-435
MDA-N = test system: MDA-N
NCI/ADR-RES = test system: NCI/ADR-RES
OVCAR-5 = test system: OVCAR-5
PC-3 = test system: PC-3
SF-539 = test system: SF-539
SNB-75 = test system: SNB-75
T47D = test system: T47D

For `CCC1=CC2CN3Cn4c(c(COCc5c6n(c7ccccc57)CN5CC7C=C(CC)C5C6(C(=O)OC)C7)c5ccccc54)C(C(=O)OC)(C2)C13`, the GI50 (786-0) was > 100 µM (inactive), the GI50 (A498) was > 100 µM (inactive) and the GI50 (A549) was > 100 µM (inactive). For the same compound, the GI50 (ACHN) was 68.4 µM (inactive), the GI50 (CAKI-1) was > 100 µM (inactive) and the GI50 (CCRF-CEM) was > 100 µM (inactive). For the same compound, the GI50 (COLO 205) was > 100 µM (inactive), the GI50 (DLD-1) was > 100 µM (inactive) and the GI50 (DMS-114) was > 100 µM (inactive). The GI50 (DMS-273) was > 100 µM (inactive), the GI50 (EKVX) was > 100 µM (inactive) and the GI50 (HCT-116) was > 100 µM (inactive). For the same compound, the GI50 (HCT-15) was greater than 100 µM, the GI50 (HL-60) was > 100 µM (inactive) and the GI50 (HOP-62) was > 100 µM (inactive). The GI50 (HT-29) was > 100 µM (inactive), the GI50 (IGROV-1) was > 100 µM (inactive) and the GI50 (K562) was > 100 µM (inactive). The GI50 (KM-20L2) was > 100 µM (inactive), the GI50 (KM12) was > 100 µM (inactive) and the GI50 (LOX IMVI) was > 100 µM (inactive). The GI50 (LXFL 529) was > 100 µM (inactive), the GI50 (M14) was > 100 µM (inactive) and the GI50 (M19-MEL) was 47.2 µM (inactive). For the same compound, the GI50 (MOLT-4) was > 100 µM (inactive), the GI50 (Malme-3M) was > 100 µM (inactive) and the GI50 (NCI-H226) was > 100 µM (inactive). The GI50 (NCI-H23) was > 100 µM (inactive), the GI50 (NCI-H460) was > 100 µM (inactive) and the GI50 (NCI-H522) was > 100 µM (inactive). For the same compound, the GI50 (OVCAR-3) was > 100 µM (inactive), the GI50 (OVCAR-4) was > 100 µM (inactive) and the GI50 (OVCAR-8) was > 100 µM (inactive). For the same compound, the GI50 (RPMI-8226) was > 100 µM (inactive), the GI50 (RXF 393) was > 100 µM (inactive) and the GI50 (SF-268) was 66.8 µM (inactive). The GI50 (SF-295) was > 100 µM (inactive), the GI50 (SK-MEL-28) was > 100 µM (inactive) and the GI50 (SK-MEL-2) was > 100 µM (inactive). The GI50 (SK-MEL-5) was > 100 µM (inactive), the GI50 (SK-OV-3) was 92.5 µM (inactive) and the GI50 (SN12C) was > 100 µM (inactive). The GI50 (SNB-19) was > 100 µM (inactive), the GI50 (SR) was > 100 µM (inactive) and the GI50 (SW-620) was > 100 µM (inactive). The GI50 (TK-10) was > 100 µM (inactive), the GI50 (U-251) was > 100 µM (inactive) and the GI50 (UACC-257) was > 100 µM (inactive). The GI50 (UACC-62) was > 100 µM (inactive), the GI50 (UO-31) was > 100 µM (inactive) and the GI50 (XF498) was > 100 µM (inactive).

In the case of `N#CC1(C#N)C2(c3ccccc3)OC(c3ccccc3)(c3cc4ccccc4cc32)C1(C#N)C#N`, the GI50 (786-0) is reported as 8.51 µM (inactive), the GI50 (A498) is reported as 19.5 µM (inactive) and the GI50 (A549) is reported as 14.7 µM (inactive). The GI50 (ACHN) was 11.8 µM (inactive), the GI50 (BT-549) was > 10 µM (inactive) and the GI50 (CAKI-1) was 7.91 µM (inactive). The GI50 (CCRF-CEM) was 1.08 µM (active), the GI50 (COLO 205) was 6.17 µM (inactive) and the GI50 (DLD-1) was 8.73 µM (inactive). For the same compound, the GI50 (DMS-114) was 7.89 µM (inactive), the GI50 (DMS-273) was 16.3 µM (inactive) and the GI50 (DU-145) was 14.5 µM (inactive). For the same compound, the GI50 (EKVX) was 16.6 µM (inactive), the GI50 (HCC 2998) was 18.5 µM (inactive) and the GI50 (HCT-116) was 7.03 µM (inactive). For the same compound, the GI50 (HCT-15) was 12.2 µM, the GI50 (HL-60) was 2.37 µM (inactive) and the GI50 (HOP-18) was 3.47 µM (inactive). For the same compound, the GI50 (HOP-62) was 20.7 µM (inactive), the GI50 (HOP-92) was 1.52 µM (inactive) and the GI50 (HT-29) was 14.8 µM (inactive). For the same compound, the GI50 (Hs-578T) was 25.8 µM (inactive), the GI50 (IGROV-1) was 14.8 µM (inactive) and the GI50 (K562) was 2.86 µM (inactive). The GI50 (KM-20L2) was 13.3 µM (inactive), the GI50 (KM12) was 7.85 µM (inactive) and the GI50 (LOX IMVI) was 4.91 µM (inactive). For the same compound, the GI50 (LXFL 529) was 1.62 µM (inactive), the GI50 (M14) was 10.6 µM (inactive) and the GI50 (MCF7) was 5.38 µM (inactive). The GI50 (MDA-MB-231) was 15.7 µM (inactive), the GI50 (MDA-MB-435) was 17.1 µM (inactive) and the GI50 (MDA-N) was 16.9 µM (inactive). For the same compound, the GI50 (MOLT-4) was 1.71 µM (inactive), the GI50 (Malme-3M) was 18.1 µM (inactive) and the GI50 (NCI-H226) was 12.6 µM (inactive). For the same compound, the GI50 (NCI-H23) was 11.9 µM (inactive), the GI50 (NCI-H460) was 18 µM (inactive) and the GI50 (NCI-H522) was 3.01 µM (inactive). For the same compound, the GI50 (NCI/ADR-RES) was 21 µM (inactive), the GI50 (OVCAR-3) was 13.9 µM (inactive) and the GI50 (OVCAR-4) was 11.4 µM (inactive). The GI50 (OVCAR-5) was 15.8 µM (inactive), the GI50 (OVCAR-8) was 8.3 µM (inactive) and the GI50 (PC-3) was 17.1 µM (inactive). The GI50 (RPMI-8226) was 1.28 µM (inactive), the GI50 (RXF 393) was 5.51 µM (inactive) and the GI50 (SF-268) was 17 µM (inactive). For the same compound, the GI50 (SF-295) was 15.8 µM (inactive), the GI50 (SF-539) was 16.1 µM (inactive) and the GI50 (SK-MEL-28) was 12.4 µM (inactive). The GI50 (SK-MEL-2) was 19.4 µM (inactive), the GI50 (SK-MEL-5) was 14.3 µM (inactive) and the GI50 (SK-OV-3) was 21.1 µM (inactive). For the same compound, the GI50 (SN12C) was 16.6 µM (inactive), the GI50 (SNB-19) was 15.5 µM (inactive) and the GI50 (SNB-75) was 13 µM (inactive). For the same compound, the GI50 (SR) was 33.3 µM (inactive), the GI50 (SW-620) was 2.62 µM (inactive) and the GI50 (T47D) was 13.6 µM (inactive). The GI50 (TK-10) was 16.2 µM (inactive), the GI50 (U-251) was 16.3 µM (inactive) and the GI50 (UACC-257) was 27.5 µM (inactive). The GI50 (UACC-62) was 17.7 µM (inactive) and the GI50 (UO-31) was 24 µM (inactive).

— ChEMBL document CHEMBL1201862, “PubChem BioAssay data set” (2004)
